Test results taken from US20260007684A1, “AMIDE DERIVATIVES FOR INHIBITING NLRP3 AND USES THEREOF” (Ventus Therapeutics U.S., Inc., priority 2023, published 2026).

Biological target: human NLRP3 (Homo sapiens (Human), UniProt Q96P20)
Test: Scintillation Proximity (SPA) NLRP3 Assay: displacement of 3H-MCC950
Format: binding
Conditions: displacement of 3H-MCC950; read-out: SPA IC50

human NLRP3, sequence (Q96P20 whole entry): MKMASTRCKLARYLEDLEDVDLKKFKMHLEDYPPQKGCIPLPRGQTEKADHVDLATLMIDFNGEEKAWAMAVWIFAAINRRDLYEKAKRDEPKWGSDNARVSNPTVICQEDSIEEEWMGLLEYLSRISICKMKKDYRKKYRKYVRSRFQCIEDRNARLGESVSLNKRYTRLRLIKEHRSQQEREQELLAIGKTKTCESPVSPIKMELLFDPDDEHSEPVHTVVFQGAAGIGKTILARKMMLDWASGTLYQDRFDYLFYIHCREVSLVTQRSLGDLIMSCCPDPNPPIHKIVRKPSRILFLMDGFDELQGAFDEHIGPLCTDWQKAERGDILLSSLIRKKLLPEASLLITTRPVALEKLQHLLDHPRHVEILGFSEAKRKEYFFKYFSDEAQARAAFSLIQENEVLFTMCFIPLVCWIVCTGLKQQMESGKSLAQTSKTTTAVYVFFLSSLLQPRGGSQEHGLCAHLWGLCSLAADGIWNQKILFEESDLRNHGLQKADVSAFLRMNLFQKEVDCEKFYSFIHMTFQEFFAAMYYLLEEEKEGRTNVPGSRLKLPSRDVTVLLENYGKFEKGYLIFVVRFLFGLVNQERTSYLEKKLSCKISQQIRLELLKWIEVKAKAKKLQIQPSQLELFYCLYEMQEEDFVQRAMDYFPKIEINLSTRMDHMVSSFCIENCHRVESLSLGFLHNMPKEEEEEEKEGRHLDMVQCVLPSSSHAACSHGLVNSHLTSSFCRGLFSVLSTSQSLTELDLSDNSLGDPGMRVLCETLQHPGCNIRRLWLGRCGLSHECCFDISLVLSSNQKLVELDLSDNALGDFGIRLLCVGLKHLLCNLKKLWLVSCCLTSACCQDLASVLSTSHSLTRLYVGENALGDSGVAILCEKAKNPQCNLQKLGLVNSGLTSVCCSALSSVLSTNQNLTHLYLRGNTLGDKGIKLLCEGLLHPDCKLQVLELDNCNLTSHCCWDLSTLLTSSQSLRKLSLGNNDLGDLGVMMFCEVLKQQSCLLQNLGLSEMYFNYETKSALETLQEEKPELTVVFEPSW

Row | SMILES | IC50 [µM]
1 | C[C@H]1CCN(c2nnn[nH]2)C[C@@H](NC(=O)C2(c3ccc(C(F)F)cc3O)CC2)C1 (single isomer, unassigned) [30D*, 1-(4-(difluoromethyl)-2-hydroxyphenyl)-N-(5-methyl-1-(1H-tetrazol-5-yl)azepan-3-yl)cyclopropane-1-carboxamide] | 1 to 10
2 | C[C@H]1CCN(c2nnn[nH]2)C[C@H](NC(=O)C2(c3ccc(C(F)(F)F)c(F)c3O)CC2)C1 (single isomer, unassigned) [31C*, 1-(3-fluoro-2-hydroxy-4-(trifluoromethyl)phenyl)-N-(5-methyl-1-(1H-tetrazol-5-yl)azepan-3-yl)cyclopropane-1-carboxamide] | 10 to 50
3 | C[C@H]1CCN(c2nnn[nH]2)C[C@@H](NC(=O)C2(c3ccc(C(F)(F)F)c(F)c3O)CC2)C1 (single isomer, unassigned) [31D*, 1-(3-fluoro-2-hydroxy-4-(trifluoromethyl)phenyl)-N-(5-methyl-1-(1H-tetrazol-5-yl)azepan-3-yl)cyclopropane-1-carboxamide] | 1 to 10
4 | C[C@@H]1CCN(c2nnn[nH]2)C[C@@H](NC(=O)C2(c3ccc(C4CC4)c(F)c3O)CC2)C1 (single isomer, unassigned) [32B*, 1-(4-cyclopropyl-3-fluoro-2-hydroxyphenyl)-N-(5-methyl-1-(1H-tetrazol-5-yl)azepan-3-yl)cyclopropane-1-carboxamide] | 1 to 10
5 | C[C@H]1CCN(c2nnn[nH]2)C[C@H](NC(=O)C2(c3ccc(C4CC4)c(F)c3O)CC2)C1 (single isomer, unassigned) [32C*, 1-(4-cyclopropyl-3-fluoro-2-hydroxyphenyl)-N-(5-methyl-1-(1H-tetrazol-5-yl)azepan-3-yl)cyclopropane-1-carboxamide] | 50 to 100
6 | C[C@H]1CCN(c2nnn[nH]2)C[C@@H](NC(=O)C2(c3ccc(C4CC4)c(F)c3O)CC2)C1 (single isomer, unassigned) [32D*, 1-(4-cyclopropyl-3-fluoro-2-hydroxyphenyl)-N-(5-methyl-1-(1H-tetrazol-5-yl)azepan-3-yl)cyclopropane-1-carboxamide] | 10 to 50
7 | O=C(N[C@H]1CC[C@@H]2CC[C@H]1N2c1nnn[nH]1)C1(c2ccc(C(F)(F)F)cc2O)CC1 (single isomer, unassigned) [34B*] | 1 to 10
8 | C[C@@H]1C[C@H](NC(=O)C2(c3ccc(OC(F)F)cc3)CC2)[C@H]2CC[C@@H]1N2c1nnn[nH]1 (single isomer, unassigned) [35B*] | 50 to 100
9 | C[C@H]1C[C@@H](NC(=O)C2(c3ccc(OC(F)F)cc3)CC2)[C@@H]2CC[C@H]1N2c1nnn[nH]1 (single isomer, unassigned) [35C*] | > 100
10 | C[C@H]1C[C@H](NC(=O)C2(c3ccc(OC(F)F)cc3)CC2)[C@@H]2CC[C@H]1N2c1nnn[nH]1 (single isomer, unassigned) [35D*] | 10 to 50
11 | C[C@H]1C[C@H](NC(=O)C2(c3ccc(OC(F)F)cc3)CC2)[C@H]2CC[C@@H]1N2c1nnn[nH]1 (single isomer, unassigned) [35F*] | 50 to 100
12 | C[C@@H]1C[C@@H](NC(=O)C2(c3ccc(OC(F)F)cc3)CC2)[C@@H]2CC[C@H]1N2c1nnn[nH]1 (single isomer, unassigned) [35G*] | > 100
13 | C[C@@H]1C[C@H](NC(=O)C2(c3ccc(OC(F)F)cc3)CC2)[C@@H]2CC[C@H]1N2c1nnn[nH]1 (single isomer, unassigned) [35H*] | > 100
14 | C[C@H]1CC[C@@H](NC(=O)C2(c3ccc(Cl)cc3)CC2)CN(c2nnn[nH]2)C1 (single isomer, unassigned) [36A*, 1-(4-chlorophenyl)-N-(6-methyl-1-(1H-tetrazol-5-yl)azepan-3-yl)cyclopropane-1-carboxamide] | < 1
15 | C[C@H]1CC[C@H](NC(=O)C2(c3ccc(Cl)cc3)CC2)CN(c2nnn[nH]2)C1 (single isomer, unassigned) [36B*, 1-(4-chlorophenyl)-N-(6-methyl-1-(1H-tetrazol-5-yl)azepan-3-yl)cyclopropane-1-carboxamide] | 1 to 10
16 | C[C@@H]1CC[C@@H](NC(=O)C2(c3ccc(Cl)cc3)CC2)CN(c2nnn[nH]2)C1 (single isomer, unassigned) [36C*, 1-(4-chlorophenyl)-N-(6-methyl-1-(1H-tetrazol-5-yl)azepan-3-yl)cyclopropane-1-carboxamide] | > 100
17 | C[C@@H]1CC[C@H](NC(=O)C2(c3ccc(Cl)cc3)CC2)CN(c2nnn[nH]2)C1 (single isomer, unassigned) [36D*, 1-(4-chlorophenyl)-N-(6-methyl-1-(1H-tetrazol-5-yl)azepan-3-yl)cyclopropane-1-carboxamide] | > 100
18 | C[C@@H]1C[C@H](NC(=O)C2(c3ccc(C4CC4(F)F)cc3)CC2)[C@H]2CC[C@@H]1N2c1nnn[nH]1 (single isomer, unassigned) [37B*] | 10 to 50
19 | C[C@H]1C[C@@H](NC(=O)C2(c3ccc(C4CC4(F)F)cc3)CC2)[C@@H]2CC[C@H]1N2c1nnn[nH]1 (single isomer, unassigned) [37C*] | > 100
20 | C[C@H]1C[C@H](NC(=O)C2(c3ccc(C4CC4(F)F)cc3)CC2)[C@@H]2CC[C@H]1N2c1nnn[nH]1 (single isomer, unassigned) [37D*] | > 100
21 | CC1(C)C[C@H](NC(=O)C2(c3ccc(Cl)cc3O)CC2)CN(c2nnn[nH]2)C1 (single isomer, unassigned) [42B*] | 10 to 50
22 | O=C(N[C@@H]1CN(c2nnn[nH]2)CCC(F)(F)C1)C1(c2ccc(Cl)cc2)CC1 (single isomer, unassigned) [53B*] | 50 to 100
23 | C[C@@H]1CCN(c2nnn[nH]2)C[C@@H](NC(=O)C2(c3ccc(C(F)(F)F)c(OC(F)F)c3)CC2)C1 (single isomer, unassigned) [54B*] | 10 to 50
24 | C[C@H]1CCN(c2nnn[nH]2)C[C@H](NC(=O)C2(c3ccc(C(F)(F)F)c(OC(F)F)c3)CC2)C1 (single isomer, unassigned) [54C*] | > 100
25 | C[C@H]1CCN(c2nnn[nH]2)C[C@@H](NC(=O)C2(c3ccc(C(F)(F)F)c(OC(F)F)c3)CC2)C1 (single isomer, unassigned) [54D*] | 10 to 50

Row | SMILES | IC50 [µM]
26 | C[C@@H]1CCN(c2nnn[nH]2)C[C@@H](NC(=O)C2(c3ccc(Cl)cc3Cl)CC2)C1 (single isomer, unassigned) [55B*] | 10 to 50
27 | C[C@H]1CCN(c2nnn[nH]2)C[C@H](NC(=O)C2(c3ccc(Cl)cc3Cl)CC2)C1 (single isomer, unassigned) [55C*] | 50 to 100
28 | C[C@H]1CCN(c2nnn[nH]2)C[C@@H](NC(=O)C2(c3ccc(Cl)cc3Cl)CC2)C1 (single isomer, unassigned) [55D*] | 50 to 100
29 | C[C@@H]1CCN(c2nnn[nH]2)C[C@@H](NC(=O)C2(c3ccc(Cl)cc3F)CC2)C1 (single isomer, unassigned) [56B*] | 1 to 10
30 | C[C@H]1CCN(c2nnn[nH]2)C[C@H](NC(=O)C2(c3ccc(Cl)cc3F)CC2)C1 (single isomer, unassigned) [56C*] | 50 to 100
31 | C[C@H]1CCN(c2nnn[nH]2)C[C@@H](NC(=O)C2(c3ccc(Cl)cc3F)CC2)C1 (single isomer, unassigned) [56D*] | 10 to 50
32 | C[C@@H]1CCN(c2nnn[nH]2)C[C@@H](NC(=O)C2(c3ccc(OC(F)(F)F)cc3)CC2)C1 (single isomer, unassigned) [57B*] | 1 to 10
33 | C[C@H]1CCN(c2nnn[nH]2)C[C@H](NC(=O)C2(c3ccc(OC(F)(F)F)cc3)CC2)C1 (single isomer, unassigned) [57C*] | > 100
34 | C[C@H]1CCN(c2nnn[nH]2)C[C@@H](NC(=O)C2(c3ccc(OC(F)(F)F)cc3)CC2)C1 (single isomer, unassigned) [57D*] | 10 to 50
35 | C[C@H]1CCN(c2nnn[nH]2)C[C@H](NC(=O)C2(c3ccc(OC(F)F)cc3)CC2)C1 (single isomer, unassigned) [58C*] | > 100
36 | C[C@H]1CCN(c2nnn[nH]2)C[C@@H](NC(=O)C2(c3ccc(OC(F)F)cc3)CC2)C1 (single isomer, unassigned) [58D*] | 1 to 10
37 | C[C@@H]1CCN(c2nnn[nH]2)C[C@@H](NC(=O)C2(c3ccc(Br)cc3)CC2)C1 (single isomer, unassigned) [59B*] | 1 to 10
38 | C[C@H]1CCN(c2nnn[nH]2)C[C@H](NC(=O)C2(c3ccc(Br)cc3)CC2)C1 (single isomer, unassigned) [59C*] | 50 to 100
39 | C[C@H]1CCN(c2nnn[nH]2)C[C@@H](NC(=O)C2(c3ccc(Br)cc3)CC2)C1 (single isomer, unassigned) [59D*] | 1 to 10
40 | C[C@H]1CCN(c2nnn[nH]2)C[C@H](NC(=O)C2(c3ccc(Cl)cc3O)CC2)C1 (single isomer, unassigned) [60C*] | 1 to 10
41 | C[C@H]1CCN(c2nnn[nH]2)C[C@@H](NC(=O)C2(c3ccc(Cl)cc3O)CC2)C1 (single isomer, unassigned) [60D*] | < 1
42 | C[C@H]1CCN(c2nnn[nH]2)C[C@H](NC(=O)C2(c3ccc(C(F)(F)F)cc3)CC2)C1 (single isomer, unassigned) [61B*] | 1 to 10
43 | C[C@@H]1CCN(c2nnn[nH]2)C[C@@H](NC(=O)C2(c3ccc(C(F)(F)F)cc3)CC2)C1 (single isomer, unassigned) [61C*] | 50 to 100
44 | C[C@H]1CCN(c2nnn[nH]2)C[C@@H](NC(=O)C2(c3ccc(C(F)(F)F)cc3)CC2)C1 (single isomer, unassigned) [61D*] | 10 to 50
45 | C[C@H]1CCN(c2nnn[nH]2)C[C@H](NC(=O)C2(c3ccc(OC(F)(F)F)cc3O)CC2)C1 (single isomer, unassigned) [62C*] | 1 to 10
46 | C[C@H]1CCN(c2nnn[nH]2)C[C@@H](NC(=O)C2(c3ccc(OC(F)(F)F)cc3O)CC2)C1 (single isomer, unassigned) [62D*] | 1 to 10
47 | C[C@H]1CCN(c2nnn[nH]2)C[C@H](NC(=O)C2(c3ccc(C(F)(F)F)cc3O)CC2)C1 (single isomer, unassigned) [63C*] | 10 to 50
48 | C[C@H]1CCN(c2nnn[nH]2)C[C@@H](NC(=O)C2(c3ccc(C(F)(F)F)cc3O)CC2)C1 (single isomer, unassigned) [63D*] | < 1
49 | C[C@@H]1CCN(c2nnn[nH]2)C[C@@H](NC(=O)C2(c3ccc(OC(F)(F)F)cc3F)CC2)C1 (single isomer, unassigned) [64B*] | 10 to 50
